Test results reported in article PMC9229919, “4-Aminoquinoline-Based Adamantanes as Potential Anticholinesterase Agents in Symptomatic Treatment of Alzheimer’s Disease” (Pharmaceutics, 2022).

Experiment: Ferric reducing antioxidant power (FRAP) assay;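 on FRAP: expressed as µM Fe2+ equivalents from an FeSO4·7H2O standard curve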
Details: for FRAP: mean ± standard error of three experiments
Method: . All the chemicals were purchased from Sigma-Aldrich (St. Louis, MO, USA), except for tripyridyltriazine (TPTZ) (Fluka, Buchs, Switzerland) and FeCl3 (Kemika, Zagreb, Croatia). The FRAP assay was assessed according to Benzie and Strain [53] with slight procedure adjustments for 96-well microplates. The method is based on the reduction of the ferric-tripyridyltriazine (Fe^3+-TPTZ) complex to ferrous tripyridyltriazine (Fe^2+-TPTZ) by the action of electron-donating compounds at a low pH. Briefly, the FRAP reagent was prepared by mixing acetate buffer (300 mM, pH 3.6), a solution of 10 mM TPTZ in 40 mM HCl, and 20 mM FeCl3 at 10:1:1 (v/v/v). Then, 240 μL of FRAP reagent and 10 μL of sample solution were added to a 96-well plate and incubated at 37 °C for 60 min. The absorbance was measured at 593 nm using a microplate reader (Infinite M200PRO, Tecan Austria GmbH, Salzburg, Austria) against a blank. The reducing capacity was determined for 10 and 100 µM compound concentrations. […]. All measurements were performed in three independent experiments. FRAP values, denominating the reduction of ferric-tripyridyltriazine (Fe^3+-TPTZ) to ferrous tripyridyltriazine (Fe^2+-TPTZ) by 4-aminoquinolines were calculated based on a standard curve obtained using […].

SMILES | FRAP (10 µM compound) [µM] | FRAP (100 µM compound) [µM] | reducing power (in words) (10 and 100 µM)
Cc1c(C)c2c(c(C)c1O)CCC(C)(C(=O)O)O2 (stereo not drawn) [Trolox, reference compound] | 523 ± 8 | 5812 ± 68 | –
Cc1cc(C(C)(C)C)c(O)c(C(C)(C)C)c1 [BHT, butylated hydroxytoluene, reference compound] | – | 3021 ± 117 | –
Nc1c2c(nc3ccccc13)CCCC2 [Tacrine, reference compound] | 3.4 ± 0.0 | 15 ± 2 | negligible reducing power
